According to PubChem BioAssay (NCI):
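Protocol summary: plate cells (96-well), add compound at 5 concentrations, incubate 48 h, interpolate endpoints linearly. GI50: concentration for 50% inhibition of growth. TGI: concentration producing complete growth inhibition.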

Tests used:
Assay in all cases: NCI-60 cell line screen, 48 h
[1] = tested on: SN12C renal
[2] = tested on: ACHN renal
[3] = tested on: TK-10 renal
[4] = tested on: SR leukemia
[5] = tested on: MOLT-4 leukemia
[6] = tested on: SF-268 CNS
[7] = tested on: 786-0 renal
[8] = tested on: RPMI-8226 leukemia
[9] = tested on: MCF7 breast
[10] = tested on: T-47D breast
[11] = tested on: NCI-H460 lung
[12] = tested on: UACC-257 melanoma
[13] = tested on: NCI-H226 lung
[14] = tested on: NCI-H522 lung
[15] = tested on: EKVX NSCLC
[16] = tested on: SK-OV-3 ovarian
[17] = tested on: HOP-92 NSCLC
[18] = tested on: NCI/ADR-RES ovarian
[19] = tested on: DU-145 prostate
[20] = tested on: SK-MEL-2 melanoma
[21] = tested on: A498 renal
[22] = tested on: HOP-62 NSCLC
[23] = tested on: CCRF-CEM leukemia
[24] = tested on: OVCAR-5 ovarian
[25] = tested on: U251 CNS
[26] = tested on: SNB-19 CNS
[27] = tested on: M14 melanoma
[28] = tested on: BT-549 breast
[29] = tested on: PC-3 prostate
[30] = tested on: LOX IMVI melanoma
[31] = tested on: MALME-3M melanoma
[32] = tested on: CAKI-1 renal
[33] = tested on: HCT-15 colon
[34] = tested on: RXF 393 renal
[35] = tested on: SK-MEL-5 melanoma
[36] = tested on: OVCAR-4 ovarian
[37] = tested on: HL-60(TB) leukemia
[38] = tested on: HCC-2998 colon
[39] = tested on: OVCAR-8 ovarian
[40] = tested on: NCI-H23 lung
[41] = tested on: COLO 205 colon
[42] = tested on: HCT-116 colon
[43] = tested on: HS 578T breast
[44] = tested on: MDA-MB-231 breast
[45] = tested on: OVCAR-3 ovarian
[46] = tested on: IGROV1 ovarian
[47] = tested on: KM12 colon
[48] = tested on: K-562 leukemia
[49] = tested on: SF-539 CNS
[50] = tested on: A549 NSCLC
[51] = tested on: MDA-MB-435
[52] = tested on: SNB-75 CNS
[53] = tested on: SW-620 colon
[54] = tested on: SF-295 CNS
[55] = tested on: UO-31 renal
[56] = tested on: HT29 colon
[57] = tested on: SK-MEL-28 melanoma

SMILES: CC(=O)N1CCN([C@H]2CCC[C@@H](NC(=O)c3cc4c(F)ccc(C)c4[nH]3)C2)CC1
- GI50 [1]: 21.9 µM
- TGI [1]: > 100 µM
- GI50 [2]: 32.5 µM
- TGI [2]: > 100 µM
- GI50 [3]: 18.7 µM
- TGI [3]: > 100 µM
- GI50 [4]: 14 µM
- TGI [4]: 81 µM
- GI50 [5]: 19.4 µM
- TGI [5]: > 100 µM
- GI50 [6]: 23 µM
- TGI [6]: > 100 µM
- GI50 [7]: 36.6 µM
- TGI [7]: > 100 µM
- GI50 [8]: 24.9 µM
- TGI [8]: > 100 µM
- GI50 [9]: 13.5 µM
- TGI [9]: > 100 µM
- GI50 [10]: 25.2 µM
- TGI [10]: > 100 µM
- GI50 [11]: 18.3 µM
- TGI [11]: > 100 µM
- GI50 [12]: 13.6 µM
- TGI [12]: 27.8 µM
- GI50 [13]: 16.9 µM
- TGI [13]: > 100 µM
- GI50 [14]: 10.8 µM
- TGI [14]: > 100 µM
- GI50 [15]: 10.7 µM
- TGI [15]: > 100 µM
- GI50 [16]: 37.2 µM
- TGI [16]: > 100 µM
- GI50 [17]: 18.4 µM
- TGI [17]: > 100 µM
- GI50 [18]: 69.9 µM
- TGI [18]: > 100 µM
- GI50 [19]: 24.6 µM
- TGI [19]: > 100 µM
- GI50 [20]: 34.9 µM
- TGI [20]: > 100 µM
- GI50 [21]: 14 µM
- TGI [21]: > 100 µM
- GI50 [22]: 15.3 µM
- TGI [22]: > 100 µM
- GI50 [23]: 21.6 µM
- TGI [23]: > 100 µM
- GI50 [24]: 39.9 µM
- TGI [24]: > 100 µM
- GI50 [25]: 32.1 µM
- TGI [25]: > 100 µM
- GI50 [26]: 33.3 µM
- TGI [26]: > 100 µM
- GI50 [27]: 15.3 µM
- TGI [27]: 34.3 µM
- GI50 [28]: 15.6 µM
- TGI [28]: > 100 µM
- GI50 [29]: 26.1 µM
- TGI [29]: > 100 µM
- GI50 [30]: 16.4 µM
- TGI [30]: > 100 µM
- GI50 [31]: 10.1 µM
- TGI [31]: 29.8 µM
- GI50 [32]: 11.2 µM
- TGI [32]: > 100 µM
- GI50 [33]: 19.9 µM
- TGI [33]: > 100 µM
- GI50 [34]: 2.17 µM
- TGI [34]: 9.61 µM
- GI50 [35]: 15.1 µM
- TGI [35]: 28.5 µM
- GI50 [36]: 11.3 µM
- TGI [36]: > 100 µM
- GI50 [37]: 62.5 µM
- TGI [37]: > 100 µM
- GI50 [38]: 18.7 µM
- TGI [38]: > 100 µM
- GI50 [39]: 46.5 µM
- TGI [39]: > 100 µM
- GI50 [40]: 20.3 µM
- TGI [40]: > 100 µM
- GI50 [41]: 24.5 µM
- TGI [41]: > 100 µM
- GI50 [42]: 27.5 µM
- TGI [42]: > 100 µM
- GI50 [43]: 4.66 µM
- TGI [43]: 47.6 µM
- GI50 [44]: 22.3 µM
- TGI [44]: > 100 µM
- GI50 [45]: 42.9 µM
- TGI [45]: > 100 µM
- GI50 [46]: 4.83 µM
- TGI [46]: > 100 µM
- GI50 [47]: 44.3 µM
- TGI [47]: > 100 µM
- GI50 [48]: 31.1 µM
- TGI [48]: > 100 µM
- GI50 [49]: 13.8 µM
- TGI [49]: > 100 µM
- GI50 [50]: 10.8 µM
- TGI [50]: > 100 µM
- GI50 [51]: 24.6 µM
- TGI [51]: > 100 µM
- GI50 [52]: 5.43 µM
- TGI [52]: 68.1 µM
- GI50 [53]: 85.1 µM
- TGI [53]: > 100 µM
- GI50 [54]: 10.8 µM
- TGI [54]: > 100 µM
- GI50 [55]: 1.78 µM
- TGI [55]: 3.91 µM
- GI50 [56]: 16.7 µM
- TGI [56]: 71.6 µM
- GI50 [57]: 13.5 µM
- TGI [57]: 29 µM
